Assay results: US10239957B2, “Peptide containing conjugates for dual molecular delivery of oligonucleotides” (Merck Sharp & Dohme Corp., priority 2013, dated 2019)
Where no end group is shown, it is not given here. [ ]: non-standard residue; d: D form. TGN = not defined here

What was measured:
CTNNB1 [1] = assay: In vitro DMD assay: mRNA silencing enhancement by peptide conjugates after siRNA-IV treatment; assay type: cell-based; conditions: primary mouse hepatocytes, siRNA-IV 125 nM baseline
How it was run: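 Primary mouse hepatocytes were pretreated 1 h with siRNA-IV at 125 nM, then exposed ~16 h to peptide conjugates across a dose range, washed and held 24 h more. Target mRNA by RT-qPCR, normalized to PPIB (dddCt), expressed as enhancement over siRNA-IV alone relative to untreated cells.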

CTNNB1 [2] = assay: In vivo evaluation in mice: liver mRNA knockdown measurement; conditions: mice
Protocol: Female CD-1 mice (Charles River) were injected in accordance with either a sequential dosing paradigm or a co-dosing paradigm. In the sequential dosing paradigm, the targeted siRNA (SCE) is dosed at t=0 and the targeted peptide is separately dosed up to 2 hr before the SCE (−2 hr) or up to 24 hr after the SCE (+24 hr). In the co-dosing paradigm, the SCE and peptides are co-formulated and dosed together in the same formulation as a single injection at t=0. The mice were dosed either by intravenous (i.v.) or subcutaneous (s.c.) injection of SCE and peptide. For the i.v. doses, the compounds were injected into the tail vein of the mice. For the s.c. doses, the compounds were injected in the subcutaneous space on the back of the mouse between the shoulder blades. At the indicated harvest times (measured from t=0 when the siRNA was dosed, regardless of when the peptide was dosed), the animals were sacrificed and 3 mm liver punches were collected, preserved in RNAlater (Ambion), and stored at 4° C. Separate 5 mm liver punches were collected, placed in 96-well plates, frozen on dry ice, and stored at −80° C. until use.
The 3 mm liver punches were removed from RNAlater and homogenized in Trizol (Invitrogen) using a bead mill tissue lyser (Qiagen); disruption was performed for two 5-minute cycles at 30 Hz. RNA extraction was performed using 1-bromo-2-chloropropane (Acros Organics) and total RNA was isolated from the aqueous phase using the MagMax RNA isolation method (Ambion). […] TaqMan qPCR analysis was performed with an ABI 7900 Real-Time PCR System using TaqMan Fast Advanced Master Mix (Applied Biosystems). All TaqMan probes and primers for CTNNB1 and PPIB (housekeeping gene) were purchased from Applied Biosystems as pre-validated gene expression assays. Results are calculated by the comparative Ct method, where the difference between the CTNNB1 Ct value and the PPIB Ct value (ΔCt) is calculated and then further normalized relative to the PBS control by taking a second difference (ΔΔCt), as described previously (1).

[3] = TGN-L-siRNA-III 0.25 mg/kg IV, peptide 10 mg/kg IV 15 min after siRNA

Substance | In vitro dddCt (vs. baseline SCE dose) (CTNNB1 [1]; Targeted peptide dose 15625 nM) | In vivo mRNA knockdown (CTNNB1 [2]; [3]) [%] | In vitro dddCt (vs. baseline SCE dose) (CTNNB1 [1]; Targeted peptide dose 125 nM) | In vitro dddCt (vs. baseline SCE dose) (CTNNB1 [1]; Targeted peptide dose 625 nM) | In vitro dddCt (vs. baseline SCE dose) (CTNNB1 [1]; Targeted peptide dose 3125 nM) | In vitro dddCt (vs. baseline SCE dose) (CTNNB1 [1]; Targeted peptide dose 8 nM) | In vitro dddCt (vs. baseline SCE dose) (CTNNB1 [1]; Targeted peptide dose 40 nM) | In vitro dddCt (vs. baseline SCE dose) (CTNNB1 [1]; Targeted peptide dose 200 nM) | In vitro dddCt (vs. baseline SCE dose) (CTNNB1 [1]; Targeted peptide dose 1000 nM) | In vitro dddCt (vs. baseline SCE dose) (CTNNB1 [1]; Targeted peptide dose 5000 nM) | further results
TGN-S-S-SEQ ID NO: 1631 (D) ([dC]G[dL][dF]G[dH][dI][dH][dH][dL][dI][dH][dH]G[dL][dH][dN][dL][dI][dD][dW][dW][dN]G; not fully specified (residue 1); also: TGN attached via disulfide; listed as Homo sapiens) | −2.11 | 17 |  |  |  |  |  |  |  |  | 
TGN-S-S-SEQ ID NO: 1632 (D) ([dC]G[dL][dF]G[dE][dI][dH][dH][dL][dI][dH][dH]G[dL][dH][dN][dL][dI][dD][dW][dW][dN]G; not fully specified (residue 1); also: TGN attached via disulfide; listed as Homo sapiens) | −0.47 | 36 | −0.29 | −0.44 | −0.19 |  |  |  |  |  | 
TGN-S-S-SEQ ID NO: 1633 (D) ([dC]G[dL][dF]G[dE][dI][dH][dH][dL][dI][dH][dH]G[dL][dE][dN][dL][dI][dD][dW][dW][dN]G; not fully specified (residue 1); also: TGN attached via disulfide; listed as Homo sapiens) |  | 55 |  | −0.2 | −0.2 |  |  |  |  |  | In vitro dddCt (vs. baseline SCE dose) (CTNNB1 [1]; Targeted peptide dose 25 nM): −0.33
TGN-S-S-SEQ ID NO: 1634 (D) ([dC]G[dL][dF]G[dE][dI][dH][dE][dL][dI][dH][dH]G[dL][dE][dN][dL][dI][dD][dW][dW][dN]G; not fully specified (residue 1); also: TGN attached via disulfide; listed as Homo sapiens) | −0.74 | 17 | −0.3 | −0.41 | −0.3 |  |  |  |  |  | 
TGN-S-S-SEQ ID NO: 1651 (D) ([dC]G[dL][dF][dE][dE][dI][dA][dE][dL][dI][dE][dE]G[dL][dE][dN][dL][dI][dD][dW]G[dN]G; not fully specified (residue 1); also: TGN attached via disulfide; listed as Homo sapiens) | −1.48 | 49 | −0.84 | −1.11 | −1.55 |  |  |  |  |  | 
TGN-S-S-SEQ ID NO: 1652 (D) ([dC][dE][dL][dF][dE][dE][dL][dA][dE][dL][dL][dW][dE]G[dL][dE][dN][dL][dI][dD][dW]G[dN][dS]; not fully specified (residue 1); also: TGN attached via disulfide; listed as Homo sapiens) | −2.03 | 37 | −1.27 | −1.5 | −1.6 |  |  |  |  |  | 
TGN-S-S-SEQ ID NO: 1653 (D) ([dC]G[dL][dF]G[dE][dI][dA][dE][dL][dI][dW][dE]G[dL][dE][dN][dL][dI][dD][dW]G[dN]G; not fully specified (residue 1); also: TGN attached via disulfide; listed as Homo sapiens) | −2.13 | 63 |  |  |  |  |  |  |  |  | In vitro dddCt (vs. baseline SCE dose) (CTNNB1 [1]; Targeted peptide dose 25 nM): −0.76; In vivo mRNA knockdown (CTNNB1 [2]; TGN-L-siRNA-III 0.25 mg/kg IV, peptide 50 mg/kg IV 15 min after siRNA): 69%
TGN-S-S-SEQ ID NO: 1712 (L): TGN-S-S-peptide; peptide CFLGALWKALSELLKNLIDWWNG (C(TGN)FLGALWKALSELLKNLIDWWNG; reading uncertain; also: TGN disulfide conjugate at Cys1; listed as Homo sapiens) |  |  |  |  |  | 0.03 | 0.07 | −0.08 | 0 | −0.2 | In vivo mRNA knockdown (CTNNB1 [2]; TGN-L-siRNA-III 0.5 mg/kg IV, peptide 5 mg/kg IV 15 min after siRNA): 34%
TGN-S-S-SEQ ID NO: 1713 (L) (C(TGN)GLRHGELEELSHEEGLENLIDWWNG; reading uncertain; also: TGN disulfide conjugate at Cys1; listed as Homo sapiens) |  | 2 |  |  |  | 0.21 | 0.21 | 0.15 | −0.04 | 0 | In vivo mRNA knockdown (CTNNB1 [2]; TGN-L-siRNA-III 0.25 mg/kg IV, peptide 2 mg/kg IV 15 min after siRNA): 0%
TGN-S-S-SEQ ID NO: 1740 (L): TGN-S-S-peptide; peptide GLFEAIEGFIENGWEGLAELAEALEALAAGGSC (GLFEAIEGFIENGWEGLAELAEALEALAAGGSC(TGN); reading uncertain; also: TGN linked to Cys via disulfide, TGN not defined; listed as Homo sapiens) |  |  |  |  |  | 0 | 0.13 | −0.07 | −0.06 | −0.06 | In vivo mRNA knockdown (CTNNB1 [2]; TGN-L-siRNA-II 0.25 mg/kg IV, peptide 3 mg/kg IV 15 min after siRNA): 20%
TGN-S-S-SEQ ID NO: 1746 (D): TGN-S-S-peptide; peptide CEALFGKINAIFIGKL ([dC][dE][dA][dL][dF]G[dK][dI][dN][dA][dI][dF][dI]G[dK][dL]; not fully specified (residue 1); also: disulfide to TGN peptide via Cys1; listed as Homo sapiens) |  |  |  |  |  | −0.01 | −0.09 | −0.07 | −0.09 | −0.04 | In vivo mRNA knockdown (CTNNB1 [2]; TGN-L-siRNA-III 0.5 mg/kg IV, peptide 2 mg/kg IV 15 min after siRNA): 31%; In vivo mRNA knockdown (CTNNB1 [2]; TGN-L-siRNA-III 0.5 mg/kg IV, peptide 10 mg/kg IV 15 min after siRNA): 25%
siRNA-IV: CTNNB1 siRNA; passenger SEQ ID NO 1807 (clickA, 5Chol), guide SEQ ID NO 1806 (sense CUGUUGGAUUGAUUCGAAAUU; guide TUUCGAAUCAAUCCAACAGUU; click A, 5' cholesterol; vinylphosphonate MOE T; (1)..(1) aminohexyl phosphate inverted abasic cap; (1)..(2) 2′-O-methyl; (3)..(3) 2′-deoxy-2′-fluoro; (4)..(5) 2′-O-methyl; (6)..(8) 2′-deoxy-2′-fluoro; (9)..(10) 2′-O-methyl; (11)..(12) 2′-deoxy-2′-fluoro; (13)..(15) 2′-O-methyl; (16)..(16) 2′-deoxy-2′-fluoro; (17)..(17) 2′ propagyl; (18)..(19) 2′-deoxy-2′-fluoro; (20)..(21) 2′-O-methyl; (20)..(21) phosphorothioate internucleotide linkage; (21)..; (1)..(1) terminal vinyl phosphate; (1)..(1) 2′-methoxyethoxy; (2)..(21) ribonucleotide unmodified or modified as described for this sequence; …) |  |  |  |  |  |  |  |  |  |  | In vivo mRNA knockdown (CTNNB1 [2]; targeted siRNA alone 0.5 mg/kg IV, peptide dose 0): 25%; In vivo mRNA knockdown (CTNNB1 [2]; targeted siRNA alone 2 mg/kg IV, peptide dose 0): 25%; In vivo mRNA knockdown (CTNNB1 [2]; targeted siRNA alone 5 mg/kg IV, peptide dose 0): 35%
